Experiment: Levels of compound 3 and compound 5 in rabbit nasal lavage and serum after nasal administration of compound 5
Format: in vivo
Conditions: rabbits
Procedure: Six (6) female NZW rabbits were employed in this study. Rabbits were obtained from Covance (Denver Pa.). Rabbits were between approximately 10 and 12 months of age at the time of study start. At time point 0, all animals received 50 μL of solution containing rabbit IL4 (RND Systems/Biotechne) and human IL13 (PreproTech) at a concentration of 0.25 mg/mL each in 0.5×PBS containing 12.5 mg/mL BSA per nostril. This was administered intranasally via a venous catheter attached to a micropipette. The animal was positioned in a supine manner and the venous catheter inserted into the nostril. The volume was introduced into the nasal cavity and the same procedure was repeated with the other nostril.
At the 2, 4, and 6 hour time points, animals in Group 1 (n=3) received 0.2 mL of vehicle (0.9% saline) per nostril and the animals in Group 2 (n=3) received 0.2 mL of compound 5 (10 mM) in vehicle per nostril. The dosing of vehicle and compound 5 proceed as follows: The animal was positioned in a supine manner in a restraint bag and a mucosal atomization device (MAD) attached to the pre-filled tuberculin syringe was inserted into the nostril and introduced into the nasal cavity. The same procedure was repeated with the other nostril.
At the 8 hour time point, all the nostrils of all animals were lavaged with 1 mL of 0.9% saline per nostril and the resulting fluid collected. Intranasal lavages were performed as follows: The animals were held sternally in a restraint bag with the head over the edge of the table and the rear of the animal elevated higher than the head. A flexible venous catheter was inserted in the nostril until resistance was felt. The 1 mL of saline was introduced through the catheter into the nasal cavity. The nasal lavage returned from the nostril was collected via a funnel into a conical tube and the approximate volume recorded. This procedure was repeated for the other nostril. The lavage was stored at approximately −70° C. until analysis. Following (<10 minutes) the 8 hour time point lavage, blood was collected from all animals, processed to serum, and frozen at approximately −70° C. until analysis.
Nasal lavage and serum samples were analyzed for the levels of compound 3 and compound 5. Frozen tissue samples were weighed (20-120 mg) and placed into 2 mL CK14 homogenizing tubes (Bertin) and 500 μL of methanol containing 1 mM butylated hydroxy toluene (BHT) and 1 mM tris(2-carboxyethyl)phosphine (TCEP) was added. The tubes were placed in a Precellys 24 tissue homogenizer (Bertin) and run at 6000 rpm six times for 20 seconds with a 10 second pause between cycles. The tubes containing the homogenized tissue were then placed in a microfuge and centrifuged for 5′ at 14,000 rpm to pellet any insoluble material. Compound 3 was quantified using LC-MS/MS (QTrap5500, Applied Biosystems). Q1/Q3 Masses: 306.00/135.00 using a deschloro derivative of compound 3 (lacking chlorine at 4 position of pyrazole ring) as an internal standard. The Q1/Q3 Masses are 272.00/101.00 Da for the internal standard. Compound 3 was extracted using liquid/liquid extraction with methanol as a diluent. […] Compound 5 was quantified using LC-MS/MS (QTrap5500, Applied Biosystems). […] Compound 5 was detected in the lavage samples from Group 2 animals (rabbit 1, rabbit 2, rabbit 3) and ranged in average concentration from 0.016 uM-0.35 uM. […]

concentration at 8 h (female, NZW, rabbit, nasal lavage, other: intranasal (mucosal atomization device), 0.2 mL of 10 mM compound 5 per nostril at 2, 4, 6 hours, lavage at 8 hours, range over 3 rabbits, read-out: average concentration of compound 5 in nasal lavage (FIG. 8)): 16 to 350 nM
level in serum samples (intranasal compound 5 10 mM, blood after the 8 hour lavage): no quantifiable
SMILES: O=C(Nc1ccc(F)cc1Cl)c1nn(COP(=O)(O)O)c(Cl)c1Cl [compound 5, (4,5-dichloro-3-((2-chloro-4-fluorophenyl)carbamoyl)-1H-pyrazol-1-yl)methyl dihydrogen phosphate]
conversion of compound 5 to compound 3 in nasal lavage (FIG. 8) (intranasal compound 5 10 mM, lavage at 8 hours): majority of compound 5 was converted to compound 3

From US11116778B2, “Prodrugs of ALOX-15 inhibitors and methods of using the same” (EMPIRICO INC., priority 2019, dated 2021)
